The text below walks through data of patent US12435087B2, “Modulators of DCN-1 and methods of use thereof” (Cellarity, Inc., priority 2023, dated 2025).

The structures appear in SMILES notation. Where two headings read alike, the source gives them in different places.

The subject of experiment [1] is Cullin-3 (CUL3) neddylation. The conditions noted are these: positive control, 1 μM; Zhou et al. Nature Comm. 2021; cited from earlier work.
For experiment [2], the target named is DCN2 (DCUND2) protein PONY domain (Homo sapiens (Human), UniProt Q6PH85). The experiment is described as follows: DCN2 TR-FRET assay, measurement of Kinact/KI. The experiment is classed as binding. On the procedure:
A TR-FRET Assay was performed to evaluate the ability of the compounds to bind DCN-2. The time resolved—Forster's resonance energy transfer (TR-FRET) assay was designed following the protocol established in (Scott et al., Nat Chem Biol. 2017 August; 13(8): 850-857). A recombinant form of the DCN2 (DCUND2) protein PONY domain was produced using an E. coli expression system at Viva Biotech China. The DCN2 protein was biotinylated (EZ sulfo-NHS-LC-biotin; Thermofisher) for labeling with 2.5 nM streptavidin terbium (Tb) cryptate in the reaction. The probe was changed to a non-covalent DCN1 inhibitor labeled with carboxyfluorescein (FAM; Zhou el al., Nat Commun. 2017; 8: 1150). Buffer conditions were modified to enhance protein stability by replacing TritonX with 0.05% Tween20 and increasing NaCl to 200 mM. […] The Kinact and KI measurements were taken to allow for continuous reads over 24 hrs. Plates were read every 5 min up to 1 hr, every 15 min up to 5 hr, and every hour up to 10 hours. Kinact and KI were calculated based on the following equations (Krippendorff B F, et al. Mechanism-based inhibition: deriving K(I) and k(inact) directly from time-dependent IC(50) values. J BiomolScreen. 2009; Mons E et al. A Comprehensive Guide for Assessing Covalent Inhibition in Enzymatic Assays Illustrated with Kinetic Simulations. […] The Kinact and KI values could be estimated from the tight curves of the IC50 values over time. [formula]

The target in experiment [3] is T1, DCN1 (DCUND1) protein PONY domain (Homo sapiens (Human), UniProt Q96GG9). The experiment is described as follows: Off-rate measurement of reversible covalent molecules (jump dilution TR-FRET with Cy5 probe). Conditions: binding mode from off-rate measurement. On the procedure: A TR-FRET assay was performed to classify the compounds as an irreversible covalent binder, a reversible covalent binder or a reversible binder.
An assay to measure the off-rate of reversible covalent molecules was developed. A typical covalent compound is assumed to stay bound to a protein for at least the life of that protein in the cell. In reality, there is a range of how long a covalent compounds remains bound before a reverse reaction takes place. Thus, some covalent bonds can be labeled as reversible as their reverse reaction takes place in a measurable amount of time under physiological conditions. The assay capitalizes on the range of covalent binders by using a high affinity covalent binder as a probe to displace the more reversible binders in an adaptation of the jump dilution method.
In this version of the jump dilution method, the increase in covalent probe binding over time was measured through a TR-FRET reaction between the covalent probe and the biotinylated target protein.
(§1) The recombinant form of the DCN1 (DCUND1) protein PONY domain was produced using an E. coli expression system at Viva Biotech (China). The DCN1 protein was biotinylated (EZ sulfo-NHS-LC-biotin; Thermofisher) for labeling with streptavidin terbium (Tb) cryptate in the reaction. This biotinylated protein was used in two forms of the TR-FRET assay as described below.
The off-rate measurement is executed in two steps based on the jump dilution method. […] The greatest dilution allowed within the constraints of the assay was chosen. These factors allow a competitive advantage for the covalent probe to replace the test compound when that compound releases from the target protein. The actual measure is the rate of increased TR-FRET signal as the covalent probe replaces the test compound over time. […] The resulting time dependent curve of the TR-FRET signal is fit to the following equation: Y=Y0+(Plateau−Y0)*(1−exp(−K*x))
K is the rate constant (1/unit of time). The residence time is defined as the inverse of K, the rate constant. The half-life is calculated as ln(2)/K.
Background: TR-FRET usually uses a lanthanide donor and a delayed reading to cut background.

Experiment [4] has as its target T1, DCN1 (DCUND1) protein PONY domain. The experiment is described as follows: TR-FRET assay (binding to DCN-1, displacement of FAM-labeled probe). In short, it runs like this: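 Compounds read at 1, 5 and 24 h, 0.1% final DMSO, by TR-FRET between terbium-streptavidin on biotinylated DCN1 PONY domain (E. coli) and a FAM-tagged non-covalent inhibitor probe. Two setups used, 5 nM protein with 20 nM labelled probe, or 0.31 nM protein with 100 nM labelled plus 800 nM unlabelled probe; buffer had TritonX and 200 mM NaCl. % activity relative to high (with probe) and low (without probe) controls.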

Experiment [5] has the same target. The experiment is described as follows: TR-FRET with FAM probe (compound potency, potency of the Cy5 probe). The conditions noted are these: potency of the covalent Cy5 probe (P-1) to DCN1; read-out: Kd (EC50) of the Cy5 probe. In kind it is binding.
Description: as §1
This version of the TR-FRET assay was used to measure compound potency to the target, specifically to measure the potency of the Cy5 probe (P-1). A non-covalent DCN1 inhibitor (Zhou et al., 2017) labeled with carboxyfluorescein (FAM) was used as the FRET acceptor probe. Displacement of the […], and thus decrease in the FRET signal, was indicative of compound activity on the target protein. Buffer conditions were optimized to enhance compound and protein stability (200 mM NaCl, 25 mM Tris, 0.5 mM DTT, 0.05% Tween20, 5% DMSO, 5% PEG-3350, pH 7.5) and concentrations of protein (0.31 nM) and probe (100 nM labeled, 800 nM unlabeled) were optimized for detection of potent molecules. The TR-FRET ratio between Tb-DCN1 and the FAM-labeled probe was measured in a 384-well opti-plate (Perkin Elmer) using a plate reader (BMG) at 1, 5, and 24 hrs after treatment with compound. The ratio was normalized to the high (DCN1 and FAM-probe) and low (DCN1 and no probe) controls for a readout of % activity (=100*(x−low)/(high−low)).

The mark [6] stands for this setting: 24 hr after treatment with compound, read-out: TR FRET IC50 24 hr.

As usually defined, the Ki is a measure of affinity in units of concentration, obtained from inhibition or displacement. A low value points to tighter binding. As a reminder, the kinact is the rate constant of inactivation at saturating inhibitor. Broadly, the kinact/KI is the maximal inactivation rate divided by the concentration that gives half of it. Broadly, the IC50 is the midpoint of a concentration-inhibition curve. The term EC50 denotes the concentration needed to bring the measured effect to its halfway point.

Sequence of DCN2 (DCUND2) protein PONY domain (Q6PH85 60-248): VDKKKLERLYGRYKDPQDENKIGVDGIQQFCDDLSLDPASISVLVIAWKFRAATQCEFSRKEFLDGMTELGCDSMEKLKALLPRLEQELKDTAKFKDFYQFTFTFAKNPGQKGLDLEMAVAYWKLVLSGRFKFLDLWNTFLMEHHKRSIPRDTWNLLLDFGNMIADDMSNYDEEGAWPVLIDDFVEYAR
T1 sequence (Q96GG9 60-248): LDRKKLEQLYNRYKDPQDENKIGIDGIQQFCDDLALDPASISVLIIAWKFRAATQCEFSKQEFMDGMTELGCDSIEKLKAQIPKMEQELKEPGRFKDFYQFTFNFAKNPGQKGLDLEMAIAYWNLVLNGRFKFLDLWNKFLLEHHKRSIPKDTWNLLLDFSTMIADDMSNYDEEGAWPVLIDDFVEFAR

Regarding `C=C(CN1CCOCC1)C(=O)NC[C@@H](NC(=O)[C@H](Cc1nc2ccc(C(C)C)cc2s1)NC(=O)CC)C1CCCCC1` [DI-1548], the “effect on CUL3 neddylation” value in experiment [1] was “reduce CUL3 neddylation”.
On to `C/C=C(\CN1CCN(C2COC2)CC1)C(=O)Nc1cccc([C@@H]2c3cnn(-c4ccccc4)c3N(CC)C(=O)[C@H]2NC(=O)c2ccn(C(F)(F)F)n2)c1` [Compound I-383, N-((4R,5S)-7-ethyl-4-(3-((E)-2-((4-(oxetan-3-yl)piperazin-1-yl)methyl)but-2-enamido)phenyl)-6-oxo-1-phenyl-4,5,6,7-tetrahydro-1H-pyrazolo[3,4-b]pyridin-5-yl)-1-(trifluoromethyl)-1H-pyrazole-3-carboxamide], for which, in experiment [2], the Ki is over 0.0005 µM, the kinact was in the range of 0.00333 to 0.005 s⁻¹ and the kinact/KI lay in the range of 167000 to 3.33e+06 M⁻¹ s⁻¹. In addition, in experiment [3], the Category entry is reported as “irreversible”. Moreover, the half-maximal inhibitory concentration (IC50) in experiment [4] (setting [6]) was at most 200 nM. Further, in experiment [4] (TR FRET IC50 1 hr (nM), 1 hr after treatment with compound), the IC50 is at most 200 nM.
`C=C(C(=O)NCc1cccc([C@@H]2c3cnn(-c4ccccc4)c3N(CC)C(=O)[C@H]2NC(=O)c2csc(C(F)(F)F)n2)c1)C(C)N(C)C1COC1` (some centres unmarked) [Compound I-305]: in experiment [2], the inhibitory constant (Ki) is over 0.0005 µM, the kinact fell in the range of 0.005 to 0.00833 s⁻¹ and the kinact/KI is 167000 to 3.33e+06 M⁻¹ s⁻¹. Further, the Category entry in experiment [3] is recorded as “irreversible”. The IC50 in experiment [4] (setting [6]) was at most 200 nM. In experiment [4] (read-out: TR FRET IC50 1 hr, 1 hr after treatment with compound), the half-inhibitory concentration (IC50) was at most 200 nM.
On to `C=C(CN1CCOCC1)C(=O)Nc1cccc([C@@H]2c3cnn(-c4cccc(OCCCN5CCN(C(=O)CCCCCN6/C(=C/C=C/C=C/C7=[N+](C)c8ccc(S(=O)(=O)[O-])cc8C7(C)C)C(C)(C)c7cc(S(=O)(=O)O)ccc76)CC5)c4)c3N(CC)C(=O)[C@H]2NC(=O)c2cccc(C(F)(F)F)c2)c1` [Cy5 probe, 2-((1E,3E)-5-((E)-1-(6-(4-(3-(3-((4R,5S)-7-ethyl-4-(3-(2-(morpholinomethyl)acrylamido)phenyl)-6-oxo-5-(3-(trifluoromethyl)benzamido)-4,5,6,7-tetrahydro-1H-pyrazolo[3,4-b]pyridin-1-yl)phenoxy)propyl)piperazin-1-yl)-6-oxohexyl)-3,3-dimethyl-5-sulfoindolin-2-ylidene)penta-1,3-dien-1-yl)-1,3,3-trimethyl-3H-indol-1-ium-5-sulfonate], for which the EC50 in experiment [5] is 0.0232 µM.
